In patent publication US20090209536A1, “AMINOQUINAZOLINE CANNABINOID RECEPTOR MODULATORS FOR TREATMENT OF DISEASE” (KALYPSYS, INC., priority 2007, published 2009):

Columns and labels:
[1] = molecular target: T1, human cannabinoid receptor type 1 (Homo sapiens, UniProt P21554); assay: Human CB1 Radioligand Binding Assay (basis of selectivity, CB2 vs. CB1); settings: CB1: HEK 293 EBNA cells expressing human CB1; CB2: CHO CB2 membranes
T1 construct: purchased Perkin Elmer RBHCB1M; host or cells: HEK 293 EBNA cells
Description: 2. Human CB1 Radioligand Binding Assay
The incubation buffer was composed of 50 mM Tris-HCl pH 7.4, 2.5 mM EDTA, 5 mM MgCl2, 5.0 mg/ml fatty acid free BSA and the wash buffer was composed of 50 mM Tris-HCl pH 7.4, 2.5 mM EDTA, 5 mM MgCl2, 0.5 mg/ml fatty acid free BSA.

[2] = molecular target: T2, human cannabinoid receptor type 2 (Homo sapiens, UniProt P34972); assay: Human CB2 Radioligand Binding Assay; settings: competition with [3H] CP-55,940; membranes from stably transfected CHO CB2 cells; read-out: CB2 Ligand Binding Asssay EC50
T2 construct: expressed in transfected cells; membrane preparation
How it was run: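 Test compounds (10 uM final, or dose-response) competed with [3H]CP-55,940, used at the Kd determined per membrane lot, for binding to stable human CB2-CHO membranes over 90 min at 30° C in pH 7.4 Tris/EGTA/MgCl2/BSA buffer. GF/C filtration then scintillation counting; 100 nM CP-55,940 defined 100% efficacy.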

T2 sequence (P34972 whole entry): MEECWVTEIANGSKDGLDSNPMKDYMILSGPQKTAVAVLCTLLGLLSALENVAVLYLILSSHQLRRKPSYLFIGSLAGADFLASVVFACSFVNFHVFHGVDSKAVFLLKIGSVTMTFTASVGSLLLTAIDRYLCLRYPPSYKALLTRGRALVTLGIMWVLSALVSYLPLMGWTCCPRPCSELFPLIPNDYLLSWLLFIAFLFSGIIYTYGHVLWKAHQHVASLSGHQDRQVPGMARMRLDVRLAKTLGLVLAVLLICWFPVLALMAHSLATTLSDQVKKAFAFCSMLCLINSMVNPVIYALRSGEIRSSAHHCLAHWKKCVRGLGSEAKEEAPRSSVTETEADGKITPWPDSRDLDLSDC
T1 sequence (P21554 whole entry): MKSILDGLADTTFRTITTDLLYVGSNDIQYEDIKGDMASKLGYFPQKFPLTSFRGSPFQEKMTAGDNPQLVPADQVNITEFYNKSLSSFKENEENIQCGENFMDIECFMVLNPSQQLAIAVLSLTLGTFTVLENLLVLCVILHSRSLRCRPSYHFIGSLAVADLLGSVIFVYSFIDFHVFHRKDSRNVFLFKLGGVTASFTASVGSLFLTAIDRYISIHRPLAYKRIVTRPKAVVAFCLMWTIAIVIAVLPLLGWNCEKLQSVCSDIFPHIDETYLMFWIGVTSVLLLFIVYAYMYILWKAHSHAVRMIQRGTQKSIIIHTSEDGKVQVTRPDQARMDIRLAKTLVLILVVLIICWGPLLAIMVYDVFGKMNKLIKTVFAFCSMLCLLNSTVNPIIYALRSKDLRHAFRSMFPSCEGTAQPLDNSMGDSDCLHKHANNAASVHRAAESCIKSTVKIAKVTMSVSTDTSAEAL

SMILES: COc1ccc(CNC(=O)c2ccc3c(N4CCN(C(C)=O)CC4)nc(-c4ccccc4Cl)nc3c2)cc1 [Example 325, 4-(4-Acetylpiperazin-1-yl)-2-(2-chlorophenyl)-N-(4-methoxybenzyl)quinazoline-7-carboxamide]
- Selectivity, CB2 vs. CB1 [1]: − (− indicates ≦ 10−fold)
- EC50 [2]: > 1000 nM

SMILES: COC(=O)c1ccc2nc(-c3ccccc3Cl)nc(Nc3cccc(OC(F)(F)F)c3)c2c1 [Example 326, Methyl 2-(2-chlorophenyl)-4-(3-(trifluoromethoxy)phenylamino)quinazoline-6-carboxylate]
- Selectivity, CB2 vs. CB1 [1]: − (− indicates ≦ 10−fold)
- EC50 [2]: > 1000 nM

SMILES: COC(=O)c1ccc2nc(-c3ccccc3Cl)nc(Nc3cccc(OC(C)C)c3)c2c1 [Example 327, Methyl 2-(2-chlorophenyl)-4-(3-isopropoxyphenylamino)quinazoline-6-carboxylate]
- Selectivity, CB2 vs. CB1 [1]: − (− indicates ≦ 10−fold)
- EC50 [2]: > 1000 nM

SMILES: COC(=O)c1ccc2nc(-c3ccccc3Cl)nc(Nc3cc(OC)cc(OC)c3)c2c1 [Example 328, Methyl 2-(2-chlorophenyl)-4-(3,5-dimethoxyphenylamino)quinazoline-6-carboxylate]
- Selectivity, CB2 vs. CB1 [1]: − (− indicates ≦ 10−fold)
- EC50 [2]: > 1000 nM

SMILES: COC(=O)c1ccc2nc(-c3ccccc3Cl)nc(N3CCc4cc(OC)ccc43)c2c1 [Example 330, Methyl 2-(2-chlorophenyl)-4-(5-methoxyindolin-1-yl)quinazoline-6-carboxylate]
- Selectivity, CB2 vs. CB1 [1]: − (− indicates ≦ 10−fold)
- EC50 [2]: > 1000 nM

SMILES: Cc1ccccc1Nc1nc(-c2ccccc2Cl)nc2ccccc12 [Example 331, 2-(2-Chlorophenyl)-N-o-tolylquinazolin-4-amine]
- Selectivity, CB2 vs. CB1 [1]: − (− indicates ≦ 10−fold)
- EC50 [2]: > 1000 nM

SMILES: CCOc1ccc(Nc2nc(-c3ccccc3Cl)nc3ccccc23)cc1 [Example 332, 2-(2-Chlorophenyl)-N-(4-ethoxyphenyl)quinazolin-4-amine]
- Selectivity, CB2 vs. CB1 [1]: − (− indicates ≦ 10−fold)
- EC50 [2]: > 1000 nM

SMILES: CN1CCCN(c2nc(-c3ccccc3Cl)nc3ccccc23)CC1 [Example 333, 2-(2-Chlorophenyl)-4-(4-methyl-1,4-diazepan-1-yl)quinazoline]
- Selectivity, CB2 vs. CB1 [1]: − (− indicates ≦ 10−fold)
- EC50 [2]: < 1000 nM

SMILES: CC(=O)N1CCCN(c2nc(-c3ccccc3Cl)nc3ccccc23)CC1 [Example 334, 1-(4-(2-(2-Chlorophenyl)quinazolin-4-yl)-1,4-diazepan-1-yl)ethanone]
- Selectivity, CB2 vs. CB1 [1]: − (− indicates ≦ 10−fold)
- EC50 [2]: < 1000 nM

SMILES: COc1ccc(Cc2nc(N3CCCCC3)c3ccccc3n2)cc1OC [Example 335, 2-(3,4-Dimethoxybenzyl)-4-(piperidin-1-yl)quinazoline]
- Selectivity, CB2 vs. CB1 [1]: − (− indicates ≦ 10−fold)
- EC50 [2]: > 1000 nM

SMILES: COc1ccc(Cc2nc(N3CCCCC3)c3ccccc3n2)cc1 [Example 336, 2-(4-Methoxybenzyl)-4-(piperidin-1-yl)quinazoline]
- Selectivity, CB2 vs. CB1 [1]: + (+ indicates > 10−fold)
- EC50 [2]: > 1000 nM

SMILES: Cc1ccccc1Cc1nc(N2CCN(C)CC2)c2ccccc2n1 [Example 337, 2-(2-Methylbenzyl)-4-(4-methylpiperazin-1-yl)quinazoline]
- Selectivity, CB2 vs. CB1 [1]: − (− indicates ≦ 10−fold)
- EC50 [2]: < 1000 nM

SMILES: CCOC(=O)N1CCN(c2nc(C(C)c3ccccc3C)nc3ccccc23)CC1 (stereo not shown) [Example 338, Ethyl 4-(2-(1-o-tolylethyl)quinazolin-4-yl)piperazine-1-carboxylate]
- Selectivity, CB2 vs. CB1 [1]: + (+ indicates > 10−fold)
- EC50 [2]: > 1000 nM

SMILES: c1ccc(Cc2nc(N3CCCCC3)c3ccccc3n2)cc1 [Example 339, 2-Benzyl-4-(piperidin-1-yl)quinazoline]
- Selectivity, CB2 vs. CB1 [1]: − (− indicates ≦ 10−fold)
- EC50 [2]: > 1000 nM

SMILES: CCOC(=O)N1CCN(c2nc(Cc3ccccc3C)nc3ccccc23)CC1 [Example 340, Ethyl 4-(2-(2-methylbenzyl)quinazolin-4-yl)piperazine-1-carboxylate]
- Selectivity, CB2 vs. CB1 [1]: + (+ indicates > 10−fold)
- EC50 [2]: > 1000 nM

SMILES: Cc1ccccc1Cc1nc(N2CCCC2)c2ccccc2n1 [Example 341, 2-(2-Methylbenzyl)-4-(pyrrolidin-1-yl)quinazoline]
- Selectivity, CB2 vs. CB1 [1]: − (− indicates ≦ 10−fold)
- EC50 [2]: < 1000 nM

SMILES: Cc1ccccc1C(C)c1nc(N2CCCC2)c2ccccc2n1 (stereo not shown) [Example 342, 4-(Pyrrolidin-1-yl)-2-(1-o-tolylethyl)quinazoline]
- Selectivity, CB2 vs. CB1 [1]: − (− indicates ≦ 10−fold)
- EC50 [2]: > 1000 nM

SMILES: CCOC(=O)N1CCN(c2nc(-c3ccccc3Cl)nc3ccc([N+](=O)[O-])cc23)CC1 [Example 343, Ethyl 4-(2-(2-chlorophenyl)-6-nitroquinazolin-4-yl)piperazine-1-carboxylate]
- Selectivity, CB2 vs. CB1 [1]: − (− indicates ≦ 10−fold)
- EC50 [2]: > 1000 nM

SMILES: CC(=O)N1CCN(c2nc(C(C)c3ccccc3C)nc3ccccc23)CC1 (stereo not shown) [Example 344, 1-(4-(2-(1-o-Tolylethyl)quinazolin-4-yl)piperazin-1-yl)ethanone]
- Selectivity, CB2 vs. CB1 [1]: + (+ indicates > 10−fold)
- EC50 [2]: < 1000 nM

SMILES: CCOC(=O)N1CCN(c2nc(Cc3cccc4ccccc34)nc3ccccc23)CC1 [Example 345, Ethyl 4-(2-(naphthalen-1-ylmethyl)quinazolin-4-yl)piperazine-1-carboxylate]
- Selectivity, CB2 vs. CB1 [1]: + (+ indicates > 10−fold)
- EC50 [2]: < 1000 nM
